Measurements reported in ChEMBL document CHEMBL6083292, “Discovery of Novel N-Sulfonamide-tetrahydroquinolines as Potent Retinoic Acid Receptor-Related Orphan Receptor γt (RORγt) Inverse Agonists for the Treatment of Psoriasis” (J Med Chem, 2024).
Calls of active or inactive are those of the source. The calls are words filed in the database; no cut-off is given here.

Columns and labels:
[1] = molecular target: T1, Nuclear receptor ROR-gamma (Homo sapiens, UniProt P51449); assay: Inverse agonist activity at APC-labeled RORgammat LBD (unknown origin) assessed as inhibition of europium-labeled SRC-1 recruitment incubated for 1 hrs by dual FRET assay
T1 sequence (P51449 whole entry): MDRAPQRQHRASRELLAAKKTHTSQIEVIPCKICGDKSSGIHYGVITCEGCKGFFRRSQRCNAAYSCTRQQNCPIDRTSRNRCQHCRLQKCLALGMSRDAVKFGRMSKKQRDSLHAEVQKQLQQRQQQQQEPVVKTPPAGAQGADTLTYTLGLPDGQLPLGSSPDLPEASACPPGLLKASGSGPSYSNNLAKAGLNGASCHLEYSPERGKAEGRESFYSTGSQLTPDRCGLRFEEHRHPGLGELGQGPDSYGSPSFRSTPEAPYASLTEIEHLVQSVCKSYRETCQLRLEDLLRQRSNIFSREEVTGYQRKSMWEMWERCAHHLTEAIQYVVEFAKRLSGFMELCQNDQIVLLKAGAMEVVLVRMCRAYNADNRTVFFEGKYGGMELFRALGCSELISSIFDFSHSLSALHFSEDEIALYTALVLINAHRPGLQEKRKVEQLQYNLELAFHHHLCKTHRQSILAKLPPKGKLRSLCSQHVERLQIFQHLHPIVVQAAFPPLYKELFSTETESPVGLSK

[2] = Toxicity in BALB/c mouse assessed as change in body weight at 4 % administered topically as ointment once a day for 11 days; settings: in vivo, topical_or_ocular, 264 h, time 11 day
Mus musculus [3] = assay: Antiinflammatory activity against imiquimod-induced psoriasis BALB/c mouse model at 4 % administered topically as ointment once a day for 11 days; format: functional, organism-based; settings: time 11.0 day
[4] = Inhibition of mouse Th17 cells differentiation from CD4+ T cells assessed as maximum inhibition flow cytometric analysis relative to control; format: functional
Mus musculus [5] = assay: Antiinflammatory activity against imiquimod-induced psoriasis BALB/c mouse model assessed as reduction in spleen to body weight ratio at 5 mg/kg, ip qd for 7 days; format: functional, organism-based; settings: time 7.0 day
Mus musculus [6] = assay: Antiinflammatory activity against imiquimod-induced psoriasis BALB/c mouse model assessed as body weight at 5 mg/kg, ip qd for 7 days; format: functional; settings: time 7 day
Mus musculus [7] = assay: Antiinflammatory activity against imiquimod-induced psoriasis BALB/c mouse model assessed as reduction in body weight at 5 mg/kg, ip qd for 7 days; format: functional; set-up: scale not given: the % may be the effect or the level left; settings: time 7 day
Mus musculus [8] = assay: Antiinflammatory activity against imiquimod-induced psoriasis BALB/c mouse model assessed as reduction in body weight at 100 mg/kg, ip qd for 7 days; format: functional; set-up: scale not given: the % may be the effect or the level left; settings: time 7 day
[9] = Acute toxicity in BALB/c mouse assessed as signs of morbidity at 10 to 20 % administered topically as ointment once a day for 12 days; settings: in vivo, topical_or_ocular, 288 h, dose 10-20 %, time 12 day
Mus musculus [10] = assay: Antiinflammatory activity against imiquimod-induced psoriasis BALB/c mouse model assessed as body weight at 100 mg/kg, ip qd for 7 days; format: functional; settings: time 7 day
[11] = Drug concentration in BALB/c mouse plasma at 4 % administered topically as ointment measured at 2 hrs; format: ADME, cell-free; settings: topical_or_ocular
Mus musculus [12] = assay: Antiinflammatory activity against imiquimod-induced psoriasis BALB/c mouse model assessed as change in ear thickness at 100 mg/kg, ip qd for 7 days; format: functional, organism-based; settings: time 7.0 day
Mus musculus [13] = assay: Anti-inflammatory activity in imiquimod-induced BALB/c mouse psoriasis model assessed as appearance of smooth skin at 4 % administered topically as ointment once a day for 11 days by H and E staining based analysis; format: functional, organism-based; settings: time 11.0 day
[14] = molecular target: Voltage-gated inwardly rectifying potassium channel KCNH2 (Homo sapiens, UniProt Q12809); assay: Inhibition of hERG at -80 mV holding potential measured for 2.5 mins; format: toxicity
Sequence of Voltage-gated inwardly rectifying potassium channel KCNH2 (Q12809 whole entry): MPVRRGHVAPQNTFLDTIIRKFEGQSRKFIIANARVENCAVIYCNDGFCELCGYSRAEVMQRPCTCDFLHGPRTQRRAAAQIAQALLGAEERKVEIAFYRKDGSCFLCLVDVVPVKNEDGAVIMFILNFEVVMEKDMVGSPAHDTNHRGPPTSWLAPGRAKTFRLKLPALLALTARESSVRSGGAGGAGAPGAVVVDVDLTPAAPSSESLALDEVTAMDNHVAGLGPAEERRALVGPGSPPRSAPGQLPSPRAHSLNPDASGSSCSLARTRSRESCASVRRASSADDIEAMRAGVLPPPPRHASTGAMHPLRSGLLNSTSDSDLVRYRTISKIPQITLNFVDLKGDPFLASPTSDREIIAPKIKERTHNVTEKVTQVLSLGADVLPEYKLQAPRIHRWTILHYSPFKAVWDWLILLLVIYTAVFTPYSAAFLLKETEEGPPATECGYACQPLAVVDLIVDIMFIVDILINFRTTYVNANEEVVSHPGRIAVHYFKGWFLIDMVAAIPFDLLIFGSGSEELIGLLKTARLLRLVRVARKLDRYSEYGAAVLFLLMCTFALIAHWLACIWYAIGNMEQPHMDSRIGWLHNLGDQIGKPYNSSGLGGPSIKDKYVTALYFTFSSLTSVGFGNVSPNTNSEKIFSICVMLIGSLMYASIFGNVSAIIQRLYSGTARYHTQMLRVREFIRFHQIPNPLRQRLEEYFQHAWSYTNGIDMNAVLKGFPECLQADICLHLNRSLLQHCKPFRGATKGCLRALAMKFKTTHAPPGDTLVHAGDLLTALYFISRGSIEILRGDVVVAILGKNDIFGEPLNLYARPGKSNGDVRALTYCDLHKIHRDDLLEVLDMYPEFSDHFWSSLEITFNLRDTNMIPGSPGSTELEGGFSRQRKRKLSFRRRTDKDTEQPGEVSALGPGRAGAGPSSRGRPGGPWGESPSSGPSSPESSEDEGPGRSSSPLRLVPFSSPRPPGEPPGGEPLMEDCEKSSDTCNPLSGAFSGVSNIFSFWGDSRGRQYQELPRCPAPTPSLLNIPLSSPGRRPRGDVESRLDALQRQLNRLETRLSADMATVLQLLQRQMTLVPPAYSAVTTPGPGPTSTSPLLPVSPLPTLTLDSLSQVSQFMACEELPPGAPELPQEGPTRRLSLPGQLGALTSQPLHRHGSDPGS

[15] = Drug concentration in pig ear assessed as retention rate at 0.0086 g administered intradermally as 4 % ointment measured at 12 hrs; format: ADME, tissue-based, Sus scrofa; settings: in vivo, other
[16] = Drug concentration in pig ear assessed as retention rate at 0.0090 g administered intradermally as 4 % ointment measured at 12 hrs; format: ADME, tissue-based, Sus scrofa; settings: in vivo, other
[17] = Drug concentration in pig ear assessed as retention rate at 0.0094 g administered intradermally as 4 % ointment measured at 12 hrs; format: ADME, tissue-based, Sus scrofa; settings: in vivo, other
[18] = Drug concentration in pig ear assessed as retention amount at 0.0085 g administered intradermally as 4 % ointment measured at 12 hrs; format: ADME, tissue-based, Sus scrofa; settings: in vivo, other
[19] = Drug concentration in pig ear assessed as retention amount at 0.0094 g administered intradermally as 4 % ointment measured at 12 hrs; format: ADME, tissue-based, Sus scrofa; settings: in vivo, other
[20] = Metabolic stability in CD-1 mouse liver assessed as intrinsic clearance preincubated for 5 mins followed by NADPH addition and measured upto 60 mins by LC-MS/MS analysis; format: ADME, tissue-based; settings: time < 65 min, read-out: CLH
[21] = Drug concentration in BALB/c mouse plasma at 4 % administered topically as ointment measured at 10 mins; format: ADME, cell-free; settings: topical or ocular
Mus musculus [22] = assay: Antiinflammatory activity against imiquimod-induced psoriasis BALB/c mouse model at 0.25 to 4 % administered topically as ointment once a day for 11 days; format: functional, organism-based; settings: dose 0.25-4 %, time 11.0 day
Mus musculus [23] = assay: Anti-inflammatory activity in imiquimod-induced BALB/c mouse psoriasis model assessed as reduction in dermal inflammatory cell infiltration at 4 % administered topically as ointment once a day for 11 days by H and E staining based analysis; format: functional, organism-based; settings: time 11.0 day
[24] = Toxicity in BALB/c mouse assessed as change in body weight at 0.25 to 4 % administered topically as ointment once a day for 11 days; settings: in vivo, topical_or_ocular, 264 h, dose 0.25-4 %, time 11 day
Mus musculus [25] = assay: Antiinflammatory activity against imiquimod-induced psoriasis BALB/c mouse model assessed as effect on spleen enlargement at 100 mg/kg, ip qd for 7 days; format: functional, organism-based; settings: time 7.0 day
[26] = Acute toxicity in BALB/c mouse assessed as signs of mortality at 10 to 20 % administered topically as ointment once a day for 12 days; settings: in vivo, topical_or_ocular, 288 h, dose 10-20 %, time 12 day
[27] = Acute toxicity in BALB/c mouse assessed as body weight gain at 10 to 20 % administered topically as ointment once a day for 12 days; settings: in vivo, topical_or_ocular, 288 h, dose 10-20 %, time 12 day
[28] = Metabolic stability in CD-1 mouse liver microsomes assessed as half life preincubated for 5 mins followed by NADPH addition and measured upto 60 mins by LC-MS/MS analysis; format: ADME, Microsome; settings: time < 65 min
[29] = Acute toxicity in BALB/c mouse at 20 % administered topically as ointment once a day for 12 days; settings: in vivo, topical_or_ocular, 288 h, time 12 day
Mus musculus [30] = assay: Anti-inflammatory activity in imiquimod-induced BALB/c mouse psoriasis model assessed as improvement in spinous cell layer at 4 % administered topically as ointment once a day for 11 days by H and E staining based analysis; format: functional, organism-based; settings: time 11.0 day
[31] = Metabolic stability in CD-1 mouse microsomes assessed as intrinsic clearance preincubated for 5 mins followed by NADPH addition and measured upto 60 mins by LC-MS/MS analysis; format: ADME, Microsome; settings: time < 65 min, read-out: CLH
[32] = Drug concentration in pig ear assessed as retention rate at 0.0085 g administered intradermally as 4 % ointment measured at 12 hrs; format: ADME, tissue-based, Sus scrofa; settings: in vivo, other
Mus musculus [33] = assay: Antiinflammatory activity against imiquimod-induced psoriasis BALB/c mouse model assessed as change in ear erythema score at 100 mg/kg, ip qd for 7 days; format: functional, organism-based; settings: time 7.0 day
Mus musculus [34] = assay: Antiinflammatory activity against imiquimod-induced psoriasis BALB/c mouse model at 1 to 4 % administered topically as ointment once a day for 11 days; format: functional, organism-based; settings: time 11.0 day
[35] = Inhibition of mouse Th17 cells differentiation from CD4+ T cells flow cytometric analysis
Mus musculus [36] = assay: Anti-inflammatory activity in imiquimod-induced BALB/c mouse psoriasis model assessed as appearance of clear sebaceous gland at 4 % administered topically as ointment once a day for 11 days by H and E staining based analysis; format: functional, organism-based; settings: time 11.0 day
Mus musculus [37] = assay: Anti-inflammatory activity in imiquimod-induced BALB/c mouse psoriasis model assessed as appearance of clear hair follicle at 4 % administered topically as ointment once a day for 11 days by H and E staining based analysis; format: functional, organism-based; settings: time 11.0 day
[38] = Drug concentration in pig ear assessed as retention amount at 0.0090 g administered intradermally as 4 % ointment measured at 12 hrs; format: ADME, tissue-based, Sus scrofa; settings: in vivo, other

Structure (SMILES): CN(Cc1ccccc1)S(=O)(=O)N1CCCc2cc(N3CC4(CCOCC4)C3)ccc21
- IC50 [1]: 19.1 µM

Structure (SMILES): CCc1ccc(N(CC(C)C)S(=O)(=O)c2ccc(OCC3CCOCC3)c(CO)c2)cc1 [GSK2981278]
- Activity [2]: Non-toxic
- Activity (Mus musculus [3]): Active

Structure (SMILES): CC(=O)N1CCN(c2ccc3c(c2)CCCN3S(=O)(=O)N(C)C(C)c2ccc(F)cc2)CC1 (stereo not drawn)
- IC50 [1]: 27 µM

Structure (SMILES): CN(Cc1ccccc1)S(=O)(=O)N1CCCc2cc(N3CCN(C(=O)C(F)(F)F)CC3)ccc21
- IC50 [1]: 4.9 µM

Structure (SMILES): CC(=O)N1CCN(c2ccc(CN(C3CCC3)S(=O)(=O)Cc3ccccc3)cc2)CC1
- Imax [4]: 90.1%

Structure (SMILES): C[C@@H]1C[C@H]2[C@@H]3CCC4=CC(=O)C=C[C@]4(C)[C@@]3(F)[C@@H](O)C[C@]2(C)[C@@]1(O)C(=O)CO [DEXAMETHASONE]
- Activity (Mus musculus [5]): Active
- Activity (Mus musculus [6]): 3.43 g
- Activity (Mus musculus [7]): 18%

Structure (SMILES): CC(=O)N1CCN(c2ccc3c(c2)CCCN3S(=O)(=O)N(C)Cc2ccc(C(F)(F)F)o2)CC1
- IC50 [1]: 27 µM

Structure (SMILES): CN(Cc1ccccc1)S(=O)(=O)N1CCCc2cc(N3CCN(C(=O)C4CCC4)CC3)ccc21
- IC50 [1]: 13 µM

Structure (SMILES): CC(=O)N1CCN(c2cc(F)c3c(c2)CCCN3S(=O)(=O)N(C)Cc2ccccc2)CC1
- IC50 [1]: 0.021 µM

Structure (SMILES): CN(Cc1ccc(C(C)(C)C)cc1)S(=O)(=O)N1CCCc2cc(N3CCC(C(=O)O)CC3)ccc21
- IC50 [1]: 0.29 µM

Structure (SMILES): CN(Cc1ccccc1)S(=O)(=O)N1CCCc2cc(N3CCN(C(=O)C4CCOC4)CC3)ccc21 (stereo not drawn)
- IC50 [1]: 18.6 µM

Structure (SMILES): CC(=O)N1CCN(c2ccc3c(c2)N(S(=O)(=O)N(C)Cc2ccccc2)CCC3)CC1
- IC50 [1]: 0.097 µM

Structure (SMILES): CC(=O)N1CCN(c2ccc3c(c2)CCCN3S(=O)(=O)N(C)Cc2ccc(SC(F)(F)F)cc2)CC1
- IC50 [1]: 6.6 µM

Structure (SMILES): CC(=O)c1ccc(Nc2ccc3c(c2)CCCN3S(=O)(=O)N(C)Cc2ccccc2)cc1
- IC50 [1]: 7.6 µM

Structure (SMILES): CN(Cc1ccccc1)S(=O)(=O)N1CCCc2cc(N3CC4(COC4)C3)ccc21
- IC50 [1]: 0.648 µM

Structure (SMILES): CCc1ccc(N(C)S(=O)(=O)N2CCCc3cc(N4CCN(C(C)=O)CC4)ccc32)cc1
- IC50 [1]: 13.1 µM

Structure (SMILES): CC(=O)N1CCN(c2ccc3c(c2)CCCN3S(=O)(=O)N(C)Cc2ccc(C(O)(C(F)(F)F)C(F)(F)F)cc2)CC1
- IC50 [1]: 1.4 µM

Structure (SMILES): CC(=O)N1CCN(c2ccc3c(c2)C(C)(C)CCN3S(=O)(=O)N(C)Cc2ccccc2)CC1
- IC50 [1]: 9.5 µM

Structure (SMILES): CN(Cc1ccccc1)S(=O)(=O)N1CCCc2cc(N3CCN(C(=O)C4CCOCC4)CC3)ccc21
- IC50 [1]: 6.8 µM

Structure (SMILES): CN(Cc1ccccc1)S(=O)(=O)N1CCCc2cc(N3CCN(C(=O)C4CCCC4)CC3)ccc21
- IC50 [1]: 3.3 µM

Structure (SMILES): CCc1ccc(S(=O)(=O)N2CCCc3cc(N4CCN(C(C)=O)CC4)ccc32)cc1
- IC50 [1]: 9.2 µM

Structure (SMILES): CN(Cc1ccc(C(C)(C)C)cc1)S(=O)(=O)N1CCCc2cc(Nc3ccc4c(c3)CCCC4=O)ccc21
- Activity (Mus musculus [8]): 13%
- Activity [9]: Non-toxic
- Activity (Mus musculus [10]): 2.41 g
- Drug uptake [11]: Not_active
- Activity (Mus musculus [12]): Active
- Activity (Mus musculus [13]): Active
- IC50 [14]: > 40 µM
- Imax [4]: 95%
- Drug uptake [15]: 4.82%
- Drug uptake [16]: 3.27%
- Drug uptake [17]: 5.22%
- Drug uptake [18]: 0.019 mg
- Drug uptake [19]: 0.012 mg
- CLint scaled [20]: 301 mL/min/kg
- concentration at 10 min [21]: 75 ng/mL
- Activity (Mus musculus [22]): Active
- Activity (Mus musculus [23]): Active
- Activity [24]: Non-toxic
- Activity (Mus musculus [25]): Active
- Activity [26]: Non-toxic
- IC50 [1]: 0.094 µM
- Activity (Mus musculus [3]): Active
- Activity [27]: Non-toxic
- half-life [28]: 18.2 min
- Activity [29]: Non-toxic
- Activity (Mus musculus [30]): Active
- microsomal CLint [31]: 76 µL/min/mg
- Drug uptake [32]: 5.79%
- Activity (Mus musculus [33]): Active
- Activity (Mus musculus [34]): Active
- IC50 [35]: 1.57 µM
- Activity (Mus musculus [36]): Active
- Activity (Mus musculus [37]): Active
- Drug uptake [38]: 0.012 mg
